Experimental data published in patent US20050014812A1, “Benzimidazole compounds” (Fujisawa Pharmaceutical Co., Ltd., priority 2003, published 2005).

The compounds below were run on C57BL/KsJ-db/db (db/db) mice (assay: Plasma glucose and triglyceride lowering in db/db mice (Experimental Example 1)). Conditions: female db/db mice, 10 mg/kg orally once daily for 7 days, fed state; lean (+m/+m) group = 100% inhibition, db/db control = 0%.
Format: in vivo
Description: Female C57BL/KsJ-db/db (db/db) mice and C57BL/KsJ-+m/+m (lean) mice (5 weeks old) were purchased from Jackson Laboratory, and subjected to the test after 1-2 weeks of acclimating period. Animals were maintained on standard laboratory chow and water ad libitum.
Test compound was dissolved or suspended in 0.5% methylcellulose solution and administered orally once a day at a volume of 5 mL/kg of body weight.
• 4-({1-[(3,5-dichloro-2-pyridinyl)methyl]-2,4-dimethyl-1H-benzimidazol-6-yl}oxy)butanoic acid (Example 21) • 4-{[1-(2,4-dichlorobenzyl)-2-ethoxy-4-methyl-1H-benzimidazol-6-yl]oxy}butanoic acid (Example 39) • 2-{[(1-{[3-chloro-5-(trifluoromethyl)-2-pyridinyl]methyl}-2-methyl-1H-benzimidazol-6-yl)oxy]methyl}benzoic acid (Example 75) Test Schedule
At 6 weeks of age, blood was obtained from the retro-orbital sinus by capillary pipette with heparin under feeding condition. Mice were divided into groups matched for body weight, plasma glucose and triglyceride. From 6-7 weeks of age, test compound was administered orally once daily for 7 days. On the next morning of the last administration day, body weight was measured and blood was obtained under feeding condition, and plasma glucose and triglyceride were measured.
Plasma glucose and triglyceride were determined by a mutarotase.glucose oxidase method and a glycerol-3-phosphate oxidase.3,5-dimethoxy-N-ethyl-N-(2′-hydroxy-3′-sulfopropyl)aniline natrium method, respectively, using assay kits from Wako Pure Chemical Industries, Ltd. (Osaka, Japan).
Values of plasma glucose and triglyceride for the lean group (+m/+m) were set as 100% inhibition, and for the control group (db/db) as 0% inhibition. The inhibition rate of plasma glucose and triglyceride for the test group was determined.
For `CCOc1nc2c(C)cc(OCCCC(=O)O)cc2n1Cc1ccc(Cl)cc1Cl` [Example 39, 4-{[1-(2,4-dichlorobenzyl)-2-ethoxy-4-methyl-1H-benzimidazol-6-yl]oxy}butanoic acid], the “Inhibition rate of plasma glucose” value was 45% and the “Inhibition rate of plasma triglyceride” value was 60%. With `Cc1nc2ccc(OCc3ccccc3C(=O)O)cc2n1Cc1ncc(C(F)(F)F)cc1Cl` [Example 75, 2-{[(1-{[3-chloro-5-(trifluoromethyl)-2-pyridinyl]methyl}-2-methyl-1H-benzimidazol-6-yl)oxy]methyl}benzoic acid] the “Inhibition rate of plasma glucose” value was 72% and the “Inhibition rate of plasma triglyceride” value was 89%. `Cc1cc(OCCCC(=O)O)cc2c1nc(C)n2Cc1ncc(Cl)cc1Cl` [Example 21, 4-({1-[(3,5-dichloro-2-pyridinyl)methyl]-2,4-dimethyl-1H-benzimidazol-6-yl}oxy)butanoic acid] was tested, and the “Inhibition rate of plasma glucose” value was 41% and the “Inhibition rate of plasma triglyceride” value was 55%.
